Assays:
Format in all cases: functional
Bombyx mori [1] = test: Anti-juvenile hormone activity in Bombyx mori Shunrei x Shougetsu 24 hr old third-instar larvae exposed to compound through topical application to dorsal abdomen assessed as precocious metamorphosis at 40 ug/larva relative to untreated control
Bombyx mori [2] = test: Anti-juvenile hormone activity in Bombyx mori Shunrei x Shougetsu 24 hr old third-instar larvae exposed to compound through topical application to dorsal abdomen assessed as precocious metamorphosis at 10 ug/larva relative to untreated control
Bombyx mori [3] = test: Anti-juvenile hormone activity in Bombyx mori Shunrei x Shougetsu 24 hr old third-instar larvae exposed to compound through topical application to dorsal abdomen assessed as precocious metamorphosis at 1 ug/larva relative to untreated control
Bombyx mori [4] = test: Anti-juvenile hormone activity in Bombyx mori Shunrei x Shougetsu 24 hr old third-instar larvae exposed to compound through topical application to dorsal abdomen assessed as precocious metamorphosis at 0.1 ug/larva relative to untreated control
Bombyx mori [5] = test: Anti-juvenile hormone activity in Bombyx mori Shunrei x Shougetsu 24 hr old fifth-instar larvae assessed as time required for onset of cocoon spinning starting from ecdysis day at 1 ug/1 ul applied topically (reference value: 8 +/- 1.2 days)
Bombyx mori [6] = test: Anti-juvenile hormone activity in Bombyx mori Shunrei x Shougetsu first 48 hr old newly molted third-instar larvae assessed as precocious metamorphosis at 50 ppm mixed with artificial diet untreated control
Bombyx mori [7] = test: Anti-juvenile hormone activity in Bombyx mori Shunrei x Shougetsu first 48 hr old newly molted third-instar larvae assessed as precocious metamorphosis at 200 ppm mixed with artificial diet untreated control
Bombyx mori [8] = test: Anti-juvenile hormone activity in Bombyx mori Shunrei x Shougetsu newly molted fourth-instar larvae assessed as precocious metamorphosis at 10 ug/larva relative to untreated control
Bombyx mori [9] = test: Anti-juvenile hormone activity in Bombyx mori Shunrei x Shougetsu newly molted fourth-instar larvae assessed as precocious metamorphosis at 1 ug/larva relative to untreated control
Bombyx mori [10] = test: Anti-juvenile hormone activity in Bombyx mori Shunrei x Shougetsu 72 hr old second-instar larvae assessed as precocious metamorphosis at 10 ug/larva relative to untreated control
Bombyx mori [11] = test: Anti-juvenile hormone activity in Bombyx mori Shunrei x Shougetsu 72 hr old second-instar larvae assessed as precocious metamorphosis at 1 ug/larva relative to untreated control
Bombyx mori [12] = test: Anti-juvenile hormone activity in Bombyx mori Shunrei x Shougetsu 72 hr old second-instar larvae assessed as precocious metamorphosis at 0.1 ug/larva relative to untreated control
Bombyx mori [13] = test: (§1) Anti-juvenile hormone activity in Bombyx mori Shunrei x Shougetsu 24 hr old third-instar larvae exposed to compound through topical application to dorsal abdomen assessed as precocious metamorphosis at 0.1 ug/larva in presence of 10 ug/larva methoprene applied to 24 hr old third-instar larvae relative to untreated control
Bombyx mori [14] = test: (§2) Anti-juvenile hormone activity in Bombyx mori Shunrei x Shougetsu 24 hr old third-instar larvae exposed to compound through topical application to dorsal abdomen assessed as precocious metamorphosis at 0.1 ug/larva in presence of 20 ppm 20-hydroxyecdysone applied through diet for first 48 hr to 24 hr old newly molted fourth-instar larvae relative to untreated control
Bombyx mori [15] = test: as §2, with “third-instar” for “newly molted fourth-instar”
Bombyx mori [16] = test: as §1, with “hr old newly molted fourth-instar larvae relative” for “hr old third-instar larvae relative”

Compound `CCOC(=O)c1ccc(OCC(CC)OC(=O)C(C)(C)C)cc1` (stereo not given) has an Activity (Bombyx mori [1]) of 0%, an Activity (Bombyx mori [2]) of 0% and an Activity (Bombyx mori [3]) of 10%. The Activity (Bombyx mori [4]) was 0% and the Time (Bombyx mori [5]) was 12.7 days.

In the case of `CCCCC(COc1ccc(C(=O)O)cc1)Cc1ccccc1` (stereo not given), the Activity (Bombyx mori [6]) is reported as 0% and the Activity (Bombyx mori [7]) is reported as 0%.

`CCCC[C@H](COc1ccc(C(=O)OCC)cc1)Cc1ccccc1` was tested, and the Activity (Bombyx mori [8]) was 0%, the Activity (Bombyx mori [9]) was 10% and the Activity (Bombyx mori [10]) was 95%. It also gave an Activity (Bombyx mori [11]) of 89%, an Activity (Bombyx mori [12]) of 20% and an Activity (Bombyx mori [1]) of 15%. The Activity (Bombyx mori [2]) was 17%, the Activity (Bombyx mori [3]) was 96% and the Activity (Bombyx mori [4]) was 52%. For the same compound, the Time (Bombyx mori [5]) was 14.3 days.

`CCCC[C@@H](COc1ccc(C(=O)OCC)cc1)Cc1ccccc1` showed an Activity (Bombyx mori [8]) of 0%, an Activity (Bombyx mori [9]) of 5% and an Activity (Bombyx mori [10]) of 0%. For the same compound, the Activity (Bombyx mori [11]) was 0%, the Activity (Bombyx mori [12]) was 0% and the Activity (Bombyx mori [1]) was 67%. For the same compound, the Activity (Bombyx mori [2]) was 42%, the Activity (Bombyx mori [3]) was 8% and the Activity (Bombyx mori [4]) was 0%. It also gave a Time (Bombyx mori [5]) of 8.4 days.

Compound `CCCCC[C@H](COc1ccc(C(=O)OCC)cc1)Cc1ccccc1` has an Activity (Bombyx mori [1]) of 17%, an Activity (Bombyx mori [2]) of 39% and an Activity (Bombyx mori [3]) of 97%. It also gave an Activity (Bombyx mori [4]) of 65%.

In the case of `CCCCC[C@@H](COc1ccc(C(=O)OCC)cc1)Cc1ccccc1`, the Activity (Bombyx mori [1]) is reported as 76%, the Activity (Bombyx mori [2]) is reported as 83% and the Activity (Bombyx mori [3]) is reported as 54%. It also gave an Activity (Bombyx mori [4]) of 0%.

`CCOC(=O)c1ccc(OCC(Cc2ccccc2)Cc2ccccc2)cc1` showed an Activity (Bombyx mori [1]) of 95%, an Activity (Bombyx mori [2]) of 65% and an Activity (Bombyx mori [3]) of 35%. It also gave an Activity (Bombyx mori [4]) of 0%.

`CCCCC(COc1ccc(C(=O)OCC)cc1)Cc1ccccc1` (racemic) was tested, and the Activity (Bombyx mori [13]) was 0%, the Activity (Bombyx mori [8]) was 10% and the Activity (Bombyx mori [9]) was 5%. It also gave an Activity (Bombyx mori [10]) of 85%, an Activity (Bombyx mori [11]) of 45% and an Activity (Bombyx mori [6]) of 58%. It also gave an Activity (Bombyx mori [14]) of 100%, an Activity (Bombyx mori [15]) of 95% and an Activity (Bombyx mori [12]) of 0%. It also gave an Activity (Bombyx mori [1]) of 12%, an Activity (Bombyx mori [2]) of 34% and an Activity (Bombyx mori [3]) of 90%. For the same compound, the Activity (Bombyx mori [4]) was 21%, the Activity (Bombyx mori [16]) was 0% and the Time (Bombyx mori [5]) was 10.1 days. For the same compound, the Activity (Bombyx mori [7]) was 5%.

`CCOC(=O)c1ccc(OCC(CC)Cc2ccccc2)cc1` (racemic) was tested, and the Activity (Bombyx mori [2]) was 5%, the Activity (Bombyx mori [3]) was 0% and the Activity (Bombyx mori [4]) was 0%.

`CCCC(COc1ccc(C(=O)OCC)cc1)Cc1ccccc1` (racemic) gave an Activity (Bombyx mori [1]) of 87%, an Activity (Bombyx mori [2]) of 37% and an Activity (Bombyx mori [3]) of 22%. It also gave an Activity (Bombyx mori [4]) of 0%.

With `CCOC(=O)c1ccc(OCC(Cc2ccccc2)CC(C)C)cc1` (racemic) the Activity (Bombyx mori [1]) was 46%, the Activity (Bombyx mori [2]) was 22% and the Activity (Bombyx mori [3]) was 0%. It also gave an Activity (Bombyx mori [4]) of 0%.

Compound `CCCCCC(COc1ccc(C(=O)OCC)cc1)Cc1ccccc1` (racemic) has an Activity (Bombyx mori [1]) of 20%, an Activity (Bombyx mori [2]) of 48% and an Activity (Bombyx mori [3]) of 94%. For the same compound, the Activity (Bombyx mori [4]) was 37%.

Work on `CCCCCCC(COc1ccc(C(=O)OCC)cc1)Cc1ccccc1` (racemic) yielded an Activity (Bombyx mori [1]) of 62%, an Activity (Bombyx mori [2]) of 42% and an Activity (Bombyx mori [3]) of 20%. For the same compound, the Activity (Bombyx mori [4]) was 0%.

In the case of `COC(C)(C)CCC[C@H](C)C/C=C/C(C)=C/C(=O)OC(C)C` [METHOPRENE], the Time (Bombyx mori [5]) is reported as 10.9 days.

From ChEMBL document CHEMBL3045873, “Synthesis and anti-juvenile hormone activity of ethyl 4-(2-benzylalkyloxy)benzoates and their enantiomers” (2007)
